≈ marks a conversion by molar mass, not a printed value. Where two headings read alike, the source gives them in different places.
Experiments:
Type in all cases: cell-based
[1] = test system: Bacillus thuringiensis; settings: for MIC: Bacillus thuringiensis
[2] = test system: Burkholderia thailandensis Brett et al ATCC: 700388; assay: microbe, parasite or virus in culture
[3] = test system: Candida glabrata; assay: Candida glabrata MIC / MFC; settings: Nakaseomyces glabratus; for MIC: read-out: MIC
[4] = test system: Francisella tularensis subsp. Holarctica Strain LVSR NR-597; assay: microbe, parasite or virus in culture
[5] = test system: Bacillus subtilis; assay: Bacillus subtilis MIC / MBC; settings: for MBC: Bacillus subtilis NRRL: B-571, minimum bactericidal concentration; for MIC: Bacillus subtilis
[6] = test system: Trichophyton rubrum; assay: MIC against Trichophyton rubrum; settings: Trichophyton rubrum Castellani Sabouraud ATCC: 28188; read-out: MIC
[7] = test system: C. albicans; assay: Candida albicans MIC / MFC
[8] = Bacillus thuringiensis Berliner ATCC: 10792
[9] = Bacillus thuringiensis Berliner ATCC: 10792, read-out: MIC
[10] = Candida glabrata #584 (Table 2)
[11] = Bacillus subtilis (Ehrenberg 1835) Cohn 1872 NRRL: B-571, read-out: MIC
[12] = C. glabrata strain #584 (Table 7)
[13] = C. albicans strain #761, read-out: MIC
[14] = C. albicans strain #762, read-out: MIC

Structure (SMILES)	MBC [1, 8]	MIC [1, 9]	MIC [2]	MIC [3, 10]	MIC [4]	MBC [5]	MIC [5, 11]	MIC [6]	further results
Brc1ccc(Sc2c[nH]c3c(Br)cccc23)cc1 [Compound 174H, 7-bromo-3-((4-bromophenyl)thio)-1H-indole]	12.5 µg/mL (≈ 32.6 µM)	6.25 µg/mL (≈ 16.3 µM)	> 50 µg/mL	12.5 µg/mL (≈ 32.6 µM)	3.13 µg/mL (≈ 8.17 µM)	> 50 µg/mL	3.13 µg/mL (≈ 8.17 µM)	2.38 µg/mL (≈ 6.21 µM)	–
Brc1ccc2[nH]cc(Sc3nc4ccccc4s3)c2c1 [Compound 174L, 2-((5-bromo-1H-indol-3-yl)thio)benzo[d]thiazole]	50 µg/mL (≈ 138 µM)	1.56 µg/mL (≈ 4.32 µM)	> 50 µg/mL	> 50 µg/mL	–	> 50 µg/mL	1.56 µg/mL (≈ 4.32 µM)	> 18 µg/mL	–
Brc1ccc2[nH]cc(SCc3ccccc3)c2c1 [Compound 174K, 3-(benzylthio)-5-bromo-1H-indole]	6.25 µg/mL (≈ 19.6 µM)	3.13 µg/mL (≈ 9.84 µM)	> 50 µg/mL	6.25 µg/mL (≈ 19.6 µM)	–	6.25 µg/mL (≈ 19.6 µM)	3.13 µg/mL (≈ 9.84 µM)	1.98 µg/mL (≈ 6.22 µM)	MFC ([3]; Candida glabrata #584 (Table 2), minimum fungicidal concentration, read-out: MFC): 12.5 µg/mL (≈ 39.3 µM)
Brc1ccc(Sc2c[nH]c3ccccc23)cc1 [Compound 174U, 3-((4-bromophenyl)thio)-1H-indole]	12.5 µg/mL (≈ 41.1 µM)	12.5 µg/mL (≈ 41.1 µM)	> 50 µg/mL	> 50 µg/mL	1.56 µg/mL (≈ 5.13 µM)	> 10 µg/mL	> 50 µg/mL	0.95 µg/mL (≈ 3.12 µM)	–
Brc1ccc(Sc2[nH]c3ccccc3c2Sc2ccc(Br)cc2)cc1 [Compound 156P, 2,3-bis((4-bromophenyl)thio)-1H-indole]	> 50 µg/mL	3.13 µg/mL (≈ 6.37 µM)	–	> 50 µg/mL	> 50 µg/mL	> 50 µg/mL	12.5 µg/mL (≈ 25.4 µM)	6.11 µg/mL (≈ 12.4 µM)	–
Brc1ccc(CSc2c[nH]c3ccc(Br)cc23)cc1 [Compound 174O, 5-bromo-3-((4-bromobenzyl)thio)-1H-indole]	3.13 µg/mL (≈ 7.88 µM)	3.13 µg/mL (≈ 7.88 µM)	> 50 µg/mL	> 50 µg/mL	–	> 50 µg/mL	3.13 µg/mL (≈ 7.88 µM)	1.24 µg/mL (≈ 3.12 µM)	–
FC(F)(F)c1ccc2[nH]cc(Sc3ccccc3Br)c2c1 [Compound 174AX, 3-((2-bromophenyl)thio)-5-(trifluoromethyl)-1H-indole]	2 µg/mL (≈ 5.37 µM)	1 µg/mL (≈ 2.69 µM)	–	12.5 µg/mL (≈ 33.6 µM)	1 µg/mL (≈ 2.69 µM)	8 µg/mL (≈ 21.5 µM)	0.5 µg/mL (≈ 1.34 µM)	–	MIC ([3]; C. glabrata strain #325): > 50 µg/mL; MIC [3, 12]: 12.5 µg/mL (≈ 33.6 µM); MFC ([7]; C. albicans strain #761, read-out: MFC): 50 µg/mL (≈ 134 µM); MIC [7, 13]: 12.5 µg/mL (≈ 33.6 µM); MFC ([7]; C. albicans strain #762, read-out: MFC): 12.5 µg/mL (≈ 33.6 µM); MIC [7, 14]: 6.25 µg/mL (≈ 16.8 µM)
Cc1c(Sc2ccc(Br)cc2)[nH]c2ccccc12 [Compound 172B, 2-((4-bromophenyl)thio)-3-methyl-1H-indole]	25 µg/mL (≈ 78.6 µM)	6.25 µg/mL (≈ 19.6 µM)	–	50 µg/mL (≈ 157 µM)	3.13 µg/mL (≈ 9.84 µM)	25 µg/mL (≈ 78.6 µM)	6.25 µg/mL (≈ 19.6 µM)	15.6 µg/mL (≈ 49 µM)	–
COC(=O)c1ccc2[nH]cc(Sc3ccc(Br)cc3)c2c1 [Compound 172G, methyl 3-((4-bromophenyl)thio)-1H-indole-5-carboxylate]	> 45 µg/mL	11.3 µg/mL (≈ 31.2 µM)	–	> 50 µg/mL	–	45 µg/mL (≈ 124 µM)	11.3 µg/mL (≈ 31.2 µM)	18.1 µg/mL (≈ 50 µM)	–
Nc1cccc(Sc2c[nH]c3ccc(Br)cc23)c1 [Compound 174Y, 3-((5-bromo-1H-indol-3-yl)thio)aniline]	> 10 µg/mL	10 µg/mL (≈ 31.3 µM)	> 50 µg/mL	25 µg/mL (≈ 78.3 µM)	–	> 10 µg/mL	10 µg/mL (≈ 31.3 µM)	3.97 µg/mL (≈ 12.4 µM)	–
Brc1ccc(Sc2c[nH]c3ccc(Br)cc23)cc1 [Compound 172D, 5-bromo-3-((4-bromophenyl)thio)-1H-indole]	10 µg/mL (≈ 26.1 µM)	1.25 µg/mL (≈ 3.26 µM)	100 µg/mL (≈ 261 µM)	> 50 µg/mL	1.25 µg/mL (≈ 3.26 µM)	5 µg/mL (≈ 13.1 µM)	1.25 µg/mL (≈ 3.26 µM)	1.18 µg/mL (≈ 3.08 µM)	MIC ([1]; ATCC10792, […]): 1.25 µg/mL (≈ 3.26 µM); MIC ([1]; strain B-1596): 2.5 µg/mL (≈ 6.53 µM); MBC [2]: > 150 µg/mL; MIC ([5]; strain B-571 (Table 4), read-out: Bacillus subtilis MIC): 1.25 µg/mL (≈ 3.26 µM); MIC ([5]; strain B-1985, read-out: Bacillus subtilis MIC): 1.25 µg/mL (≈ 3.26 µM); MIC ([5]; strain B-3665, read-out: Bacillus subtilis MIC): 1.25 µg/mL (≈ 3.26 µM); MIC ([5]; strain B-14322, read-out: Bacillus subtilis MIC): 1.25 µg/mL (≈ 3.26 µM); MIC ([5]; strain B-41090, read-out: Bacillus subtilis MIC): 2.5 µg/mL (≈ 6.53 µM); MIC ([5]; strain B-41581, read-out: Bacillus subtilis MIC): 1.25 µg/mL (≈ 3.26 µM); MIC ([5]; strain BD-594, read-out: Bacillus subtilis MIC): 2.5 µg/mL (≈ 6.53 µM)
Clc1ccc(Sc2c[nH]c3ccc(Br)cc23)cc1Cl [Compound 174W, 5-bromo-3-((3,4-dichlorophenyl)thio)-1H-indole]	5 µg/mL (≈ 13.4 µM)	1.25 µg/mL (≈ 3.35 µM)	> 50 µg/mL	25 µg/mL (≈ 67 µM)	–	> 10 µg/mL	1.25 µg/mL (≈ 3.35 µM)	1.16 µg/mL (≈ 3.11 µM)	MIC ([3]; C. glabrata strain #325): > 50 µg/mL; MIC [3, 12]: 25 µg/mL (≈ 67 µM); MIC [7, 13]: > 50 µg/mL; MIC [7, 14]: > 50 µg/mL
